Test [1] has as its system Canis familiaris. Description: Maximum collateral index in anesthetized dog at the dose of 0.01 mg/kg, i.v. The settings on record: route intravenous. Type of test: functional, Canis lupus familiaris.
The test system of test [2] is Canis familiaris. Nature of the test: Maximum […] was measured in anesthetized dog as percent at the dose of 0.01 mg/kg, i.v. Type of test: functional, Canis lupus familiaris. The conditions noted are these: route intravenous.
Test [3] concerns Canis familiaris. Description: Collateral index in anesthetized dog at the dose of 0.01 mg/kg, i.v. after 60 minutes of administration. In kind it is functional, Canis lupus familiaris. The conditions noted are these: route intravenous.
The species entered for test [4] is Canis familiaris. Description: Ratio of the CIAUC value to that of nitroglycerin (NTG ratio). Type of test: functional, Canis lupus familiaris.
Test [5] deals with Canis familiaris. Description: Maximum collateral index in anesthetized dog at the dose of 0.03 mg/kg, i.v. In kind it is functional, Canis lupus familiaris. The conditions noted are these: route intravenous.
The test system of test [6] is Canis familiaris. Nature of the test: Collateral index in anesthetized dog at the dose of 0.03 mg/kg, i.v. after 60 minutes of administration. In kind it is functional, Canis lupus familiaris. The settings on record: route intravenous.
For test [7], the system named is Canis familiaris. Description: Maximum […] was measured in anesthetized dog as percent at the dose of 0.03 mg/kg, i.v. In kind it is functional, Canis lupus familiaris. The settings on record: route intravenous.
Test [8] in a line: Nitroglycerin ratio to that was measured. In kind it is functional.

With `C[C@@H]1SC(=O)N[C@@H]1C(=O)NCCO[N+](=O)[O-]`, the Max collateral index in the test with Canis familiaris [1] amounted to 9. For the same molecule, the Max hypotension with Canis familiaris [2] is -2%. The molecule also returned a Collateral index in the test with Canis familiaris [3] of 4. Also, in the test filed under Canis familiaris [4], the NG ratio amounted to 0.5.

In the test on Canis familiaris [1], `O=C(N[C@@H](CS)C(=O)NCCO[N+](=O)[O-])c1cccnc1` came in with a Max collateral index of 2. For the same molecule, the Max hypotension in the test with Canis familiaris [2] is -3%. In addition, the Collateral index in the test on Canis familiaris [3] amounted to 0. For the same molecule, in the test filed under Canis familiaris [4], the NG ratio worked out at 0.

As to `C[C@H](CO[N+](=O)[O-])NC(=O)[C@H]1CSC(=O)N1`, in the test on Canis familiaris [5], the Max collateral index is 6. Also, in the test filed under Canis familiaris [4], the NG ratio was determined as 0.4. In the test with Canis familiaris [6], the Collateral index came to 5. Further, the Max hypotension in the test on Canis familiaris [7] is recorded as -3%.

On to `O=C1NC(C(=O)NCCO[N+](=O)[O-])C(c2cccnc2)S1` (centres undefined), for which the Max collateral index in the test on Canis familiaris [1] is reported as 2. Moreover, the Max hypotension in the test on Canis familiaris [2] is -4%. Besides, the NG ratio in test [8] was found to be 0.1. The same molecule came in with a Collateral index with Canis familiaris [3] of 0.

As for `O=C1NC(C(=O)NCCO[N+](=O)[O-])C(c2ccccc2)S1` (centres undefined), the Max collateral index with Canis familiaris [5] is on record as 18. The NG ratio in the test listed under Canis familiaris [4] was 1. Moreover, the Collateral index in the test on Canis familiaris [6] is 9. For the same molecule, the Max hypotension in the test on Canis familiaris [7] was -6%.

In turn, `CC(=O)N[C@@H](CSC(=O)OC(C)(C)C)C(=O)NCCO[N+](=O)[O-]` gave a Max collateral index in the test on Canis familiaris [1] of 21. Besides, the Max hypotension in the test on Canis familiaris [2] is -8%. For the same molecule, in the test on Canis familiaris [3], the Collateral index turned out to be 11. Further, the NG ratio in the test filed under Canis familiaris [4] is given as 0.8.

The molecule `CC(=O)N[C@@H](CS)C(=O)NCCO[N+](=O)[O-]` had a Max collateral index in the test on Canis familiaris [1] of 39. Moreover, the Max hypotension in the test on Canis familiaris [2] is -52%. In the test on Canis familiaris [3], the Collateral index was determined as 9. Further, in the test listed under Canis familiaris [4], the NG ratio was found to be 1.9.

In the test on Canis familiaris [5], `O=C1N[C@H](C(=O)NCCCO[N+](=O)[O-])CS1` displayed a Max collateral index of 4. Moreover, in the test filed under Canis familiaris [4], the NG ratio was 0.1. In the test on Canis familiaris [6], this molecule returned a Collateral index of 6. The Max hypotension in the test with Canis familiaris [7] is recorded as 0%.

For the molecule `C[C@H](CO[N+](=O)[O-])NC(=O)[C@@H]1CSC(=O)N1`, in the test on Canis familiaris [5], the Max collateral index came to 12. Also, in the test listed under Canis familiaris [4], the NG ratio turned out to be 0.9. Moreover, in the test with Canis familiaris [6], the Collateral index was 12. Also, the Max hypotension in the test on Canis familiaris [7] is -4%.

`O=C1NC(C(=O)NCCO[N+](=O)[O-])C(c2cccc3ccccc23)S1` (centres undefined) showed a Max collateral index in the test on Canis familiaris [1] of 9. Besides, the Max hypotension in the test with Canis familiaris [2] is -2%. The NG ratio in test [8] worked out at 0.5. The Collateral index in the test with Canis familiaris [3] is 9.

In the test on Canis familiaris [1], `CC(=O)N[C@@H](CSC(=O)C(C)(C)C)C(=O)NCCO[N+](=O)[O-]` yielded a Max collateral index of 45. For the same molecule, in the test on Canis familiaris [2], the Max hypotension was -23%. Besides, the Collateral index in the test with Canis familiaris [3] is 8. For the same molecule, the NG ratio in the test filed under Canis familiaris [4] is reported as 2.5.

In the test with Canis familiaris [1], `CC(=O)N[C@@H](CSC(=O)c1ccccc1)C(=O)NCCO[N+](=O)[O-]` showed a Max collateral index of 49. Moreover, in the test with Canis familiaris [2], the Max hypotension was -28%. In addition, the Collateral index in the test on Canis familiaris [3] turned out to be 5. In the test listed under Canis familiaris [4], the NG ratio is listed as 2.1.

Molecule `CC(=O)N[C@@H](CSC(C)=O)C(=O)NCCO[N+](=O)[O-]` returned a Max collateral index in the test with Canis familiaris [1] of 52. Further, the Max hypotension in the test on Canis familiaris [2] is recorded as -44%. In the test with Canis familiaris [3], this molecule registered a Collateral index of 6. Besides, in the test listed under Canis familiaris [4], the NG ratio is 2.

The molecule `O=C1NC(C(=O)NCCO[N+](=O)[O-])C(Cc2ccccc2)S1` (centres undefined) registered a Max collateral index in the test on Canis familiaris [1] of 12. For the same molecule, the Max hypotension in the test on Canis familiaris [2] was -3%. The Collateral index with Canis familiaris [3] is reported as 7. Also, the NG ratio in the test listed under Canis familiaris [4] is 1.

In the test on Canis familiaris [1], `O=C1N[C@H](C(=O)NCCO[N+](=O)[O-])CS1` returned a Max collateral index of 23. The Max hypotension in the test on Canis familiaris [2] is -8%. Further, the Collateral index with Canis familiaris [3] is listed as 16. In addition, in the test filed under Canis familiaris [4], the NG ratio is on record as 1.9.

On to `CC1(C)SC(=O)N[C@@H]1C(=O)NCCO[N+](=O)[O-]`, for which the Max collateral index in the test on Canis familiaris [5] is on record as 9. The NG ratio in the test listed under Canis familiaris [4] was 0.6. In the test on Canis familiaris [6], this molecule gave a Collateral index of 8. The Max hypotension in the test on Canis familiaris [7] is listed as -2%.

For `O=C1N[C@H](C(=O)NCCCCO[N+](=O)[O-])CS1`, the Max collateral index with Canis familiaris [1] is 2. Also, the Max hypotension in the test on Canis familiaris [2] came out at 0%. This molecule also returned a Collateral index in the test with Canis familiaris [3] of 0. The NG ratio in the test filed under Canis familiaris [4] was found to be 0.

As for `CC[C@@H](CO[N+](=O)[O-])NC(=O)[C@@H]1CSC(=O)N1`, the Max collateral index with Canis familiaris [5] came to 7. Further, the NG ratio in the test filed under Canis familiaris [4] was 0.5. For the same molecule, the Collateral index in the test with Canis familiaris [6] was 7. Besides, the Max hypotension with Canis familiaris [7] is recorded as -1%.

On to `CCCC[C@@H](CO[N+](=O)[O-])NC(=O)[C@@H]1CSC(=O)N1`, for which, in the test with Canis familiaris [5], the Max collateral index is 21. In addition, the NG ratio in the test listed under Canis familiaris [4] is 1.6. The same molecule returned a Collateral index in the test on Canis familiaris [6] of 17. Moreover, the Max hypotension with Canis familiaris [7] was -4%.

`CC(CNC(=O)[C@@H]1CSC(=O)N1)O[N+](=O)[O-]` (some centres undefined) showed a Max collateral index in the test with Canis familiaris [1] of 0. In the test on Canis familiaris [2], the Max hypotension turned out to be 0%. Moreover, the Collateral index with Canis familiaris [3] is 0. The NG ratio in the test filed under Canis familiaris [4] stood at 0.

With `O=C1NC(C(=O)NCCO[N+](=O)[O-])C(c2cccs2)S1` (centres undefined), the Max collateral index in the test on Canis familiaris [1] was 8. For the same molecule, the Max hypotension with Canis familiaris [2] is 0%. The molecule also yielded a Collateral index with Canis familiaris [3] of 3. The NG ratio in the test filed under Canis familiaris [4] was 0.5.

For the molecule `O=C1NC(C(=O)NCCO[N+](=O)[O-])C(c2ccco2)S1` (centres undefined), in the test with Canis familiaris [5], the Max collateral index came out at 6. Also, the NG ratio in the test listed under Canis familiaris [4] was determined as 0.4. The same molecule displayed a Collateral index with Canis familiaris [6] of 3. In addition, the Max hypotension in the test with Canis familiaris [7] was -3%.

Take `CC(C)C(=O)N[C@@H](CSC(=O)C(C)C)C(=O)NCCO[N+](=O)[O-]`: the Max collateral index in the test on Canis familiaris [1] is on record as 25. For the same molecule, in the test on Canis familiaris [2], the Max hypotension is given as -14%. In addition, the Collateral index with Canis familiaris [3] amounted to 9. In addition, in the test listed under Canis familiaris [4], the NG ratio was 1.5.

Molecule `C[C@@H](CO[N+](=O)[O-])NC(=O)[C@@H]1CSC(=O)N1` returned a Max collateral index with Canis familiaris [5] of 16. Besides, the NG ratio in the test listed under Canis familiaris [4] was found to be 1.1. The Collateral index with Canis familiaris [6] came to 15. Moreover, the Max hypotension with Canis familiaris [7] is -5%.

As to `CCOC(=O)SC[C@H](NC(C)=O)C(=O)NCCO[N+](=O)[O-]`, in the test with Canis familiaris [1], the Max collateral index turned out to be 39. Further, the Max hypotension in the test with Canis familiaris [2] is listed as -18%. The molecule further returned a Collateral index in the test with Canis familiaris [3] of 16. The NG ratio in the test listed under Canis familiaris [4] was determined as 2.4.

`CCC[C@@H](CO[N+](=O)[O-])NC(=O)[C@@H]1CSC(=O)N1` returned a Max collateral index with Canis familiaris [5] of 18. Also, the NG ratio in the test filed under Canis familiaris [4] came to 1.3. Moreover, the Collateral index in the test on Canis familiaris [6] was 17. Also, the Max hypotension in the test with Canis familiaris [7] is given as -7%.

Take `O=[N+]([O-])OCC(CO[N+](=O)[O-])O[N+](=O)[O-]` [NITROGLYCERIN]: in the test on Canis familiaris [5], the Max collateral index stood at 33. For the same molecule, the NG ratio in the test listed under Canis familiaris [4] is 1. Moreover, in the test on Canis familiaris [6], the Collateral index is reported as 4. In addition, the Max hypotension in the test on Canis familiaris [7] is -55%.

Molecule `CC(=O)N[C@@H](CSC(=O)c1cccnc1)C(=O)NCCO[N+](=O)[O-]` gave a Max collateral index with Canis familiaris [1] of 20. Besides, the Max hypotension with Canis familiaris [2] is given as -24%. For the same molecule, in the test on Canis familiaris [3], the Collateral index was 9. In the test filed under Canis familiaris [4], the NG ratio was 1.1.

In the test with Canis familiaris [5], `C[C@@H](CO[N+](=O)[O-])NC(=O)[C@H]1CSC(=O)N1` returned a Max collateral index of 5. In the test filed under Canis familiaris [4], the NG ratio came to 0.3. In the test on Canis familiaris [6], this molecule displayed a Collateral index of 3. Moreover, the Max hypotension in the test with Canis familiaris [7] is -1%.

Turning to `O=C1N[C@@H](C(=O)NCCO[N+](=O)[O-])CS1`, the Max collateral index in the test with Canis familiaris [5] is 14. The NG ratio in the test filed under Canis familiaris [4] amounted to 0.8. In the test on Canis familiaris [6], the Collateral index was 11. Further, the Max hypotension in the test on Canis familiaris [7] is -8%.

Turning to `CC(=O)N[C@@H](CSC(=O)OCC(C)C)C(=O)NCCO[N+](=O)[O-]`, the Max collateral index in the test on Canis familiaris [1] came to 25. In addition, in the test with Canis familiaris [2], the Max hypotension was -12%. Moreover, the Collateral index in the test on Canis familiaris [3] came out at 6. Besides, the NG ratio in the test listed under Canis familiaris [4] turned out to be 1.3.

For the origin of these results see ChEMBL document CHEMBL1136426, “Synthesis and collateral dilator activity of nitroxyalkylamides having direct or latent sulfhydryl moieties” (2003).
